Patent US5177059A, “Polymyxin B conjugates” (Sandoz Ltd., priority 1990, dated 1993)

Legend:
Type in all cases: in vivo
non-sensitized mice = assay: PMB (native and conjugated forms) induced lethality, i.p.; settings: i.p. injection, lethality monitored for 7 days
Experimental: B. PMB (native and conjugated forms) induced lethality
PMB (native and conjugated forms) are evaluated for their inherent toxicity in non-sensitized mice. Male CB57BL/c mice (18-22 g, Jackson Labs) are used throughout this study. Animals are given either native PMB or conjugated PMB by intraperitoneal injection (0.5 ml/animal) and lethality monitored for 7 days. The LD100 is determined by varying the dose of PMB (native and conjugated forms) that result in 100% lethality. From 10-20 animals are used for each dose.

endotoxin (0111B4) = assay: PMB anti-endotoxin evaluations: protection from endotoxin-induced lethality in galactosamine-hypersensitized mice
Experimental: A. Endotoxin-induced lethality
Male CB57BL/c mice (18-22 g, Jackson Labs) are used throughout this study. Animals are given endotoxin (0111B4 from List Biologicals, Palo Alto, Calif.) and galactosamine to hypersensitize, as described in Galanos et al., 1979. Proc. Natl. Acad. Sci. USA 76: 5939. The endotoxin and galactosamine (320 mg/kg) are injected intraperitoneally in 0.5 ml pyrogen-free isotonic saline per animal between 13:00 and 15:00 to avoid diurnal variation. From a dose-response study, it is determined that 0.01 mg/kg endotoxin produces 85-95% lethality. Animals are observed each day for 6 days after injection.
C. PMB anti-endotoxin evaluations
PMB (native and conjugated forms) are evaluated for their ability to neutralize endotoxin by either pre-mixing with endotoxin for 60 minutes before i.p. injection or by coadministration of the substances as a single i.p. injection. While the concentration of the PMB (native and conjugated forms) are varied, the volume of each injection is kept constant at 0.5 ml per animal. The protection by the conjugated PMB was compared to the native PMB (in terms of mg protein/kg). Controls (endotoxin, galactosamine, and vehicle) are included as well in each study. Each group has between 10-17 animals. […]
The Therapeutic Index (TI) for PMB (native and conjugated) forms is determined by dividing the LD100 by the PD100. […]

normal test animal = assay: i.v. toxicity (LD0, LD100), lethality monitored over 7 days
From the text: LD0 is the highest non-toxic dose of PMB or its conjugate.
LD100 is the dose of PMB or its conjugated form which results in 90-100% lethality when injected into a normal test animal.
The "ultra pure" PMB-conjugate has a suprising reduction in toxicity as compared with native PMB. […] Comparisons in the table below are made between the highest non-toxic dose of PMB (native or conjugated)
^1 PMB (native or conjugate) given by i.v. injection and lethality
monitored over 7 days. LD0 is the highest nontoxic dose which can be
injected into a normal test animal.

E.coli 0111B4 endotoxin = assay: i.v. protection against LD90 endotoxin challenge (endotoxin-induced lethality test); settings: i.v. injection 1-3 minutes before an LD90 i.p. injection of E.coli 0111B4 endotoxin (0.5 μg/kg)
Experimental: The resulting "ultra pure" PMB-conjugate is compared to native PMB in an endotoxin-induced leathality test as described in Example 3C supra.
At 1 mg/kg i.v., the ultra-pure PMB-conjugate gave >70% protection against a LD90 endotoxin challenge for at least 6 hours. […] Therefore the PMB-conjugate is suitable for prophylactic use.
^2 PMB (native or conjugate) given by i.v. injection 1-3 minutes
before an LD90 i.p. injection of E.coli 0111B4 endotoxin (0.5

In the case of polymyxin B [Native PMB], the LD100 (non-sensitized mice) was 25 mg/kg, the PD100 (endotoxin (0111B4); PMB or conjugate allowed to react with the endotoxin for 60 min before i.p. injection) was 2 mg/kg and the PD100 (endotoxin (0111B4); i.p., dose giving >95% survival, pre-mixing or coadministration with endotoxin not stated for the row) was 2 mg/kg. The LD100 (normal test animal; i.v.) was 9.5 mg/kg, the “LD0 (highest non-toxic dose)” value (normal test animal; i.v. injection, lethality monitored over 7 days) was 5 mg/kg and the PD100 (E.coli 0111B4 endotoxin) was 0.1 mg/kg.
